Measured values published in patent publication US20230085307A1, “PYRIDAZINONE COMPOUND AND HERBICIDE” (NISSAN CHEMICAL CORPORATION, priority 2019, published 2023).

Key:
[1] = tested on: barnyard grass; assay: Test Example 3: herbicidal effect by foliage application, Wagner pot (Table 18, symbol H); assay type: in vivo, barnyard grass (Echinochloa crus-galli); details: 320 g/ha
Outline: (§1)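 Plants were sown in alluvial soil held under 0.1–0.5 cm standing water and grown 14 days in a greenhouse at 25–30 °C. An emulsifiable formulation, water-diluted to the set dose, was then sprayed onto the foliage, and effects were scored three weeks later using previously defined criteria.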

[2] = tested on: Chinese sprangletop; assay: Test Example 3: herbicidal effect by foliage application, Wagner pot (Table 18, symbol D); assay type: in vivo, chinese sprangletop (Leptochloa chinensis); details: 320 g/ha
Outline: as §1

[3] = tested on: rice flat sedge; assay: Test Example 3: herbicidal effect by foliage application, Wagner pot (Table 18, symbol E); assay type: in vivo, rice flat sedge (Cyperus iria); details: 320 g/ha
Outline: as §1

[4] = tested on: southern crabgrass; assay: Test Example 4: herbicidal effect by soil treatment (Table 19, symbol F); assay type: in vivo, southern crabgrass (Digitaria ciliaris); details: amount of applied herbicide 320 g/ha
Outline: (§2)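 Applied as a water-diluted emulsion, the compound was sprayed onto soil covering newly sown seeds. Evaluation came three weeks after application, in a greenhouse held at 25° C. to 30° C.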

[5] = tested on: green foxtail; assay: Test Example 4: herbicidal effect by soil treatment (Table 19, symbol G); assay type: in vivo, green foxtail (Setaria viridis); details: amount of applied herbicide 320 g/ha
Outline: as §2

[6] = tested on: barnyard grass; assay: Test Example 4: herbicidal effect by soil treatment (Table 19, symbol H); assay type: in vivo, barnyard grass (Echinochloa crus-galli); details: amount of applied herbicide 320 g/ha
Outline: as §2

[7] = tested on: wild oat; assay: Test Example 4: herbicidal effect by soil treatment (Table 19, symbol I); assay type: in vivo, wild oat (Avena fatua); details: amount of applied herbicide 320 g/ha
Outline: as §2

[8] = tested on: blackgrass; assay: Test Example 4: herbicidal effect by soil treatment (Table 19, symbol J); assay type: in vivo, blackgrass (Alopecurus myosuroides); details: amount of applied herbicide 320 g/ha
Outline: as §2

[9] = tested on: Italian ryegrass; assay: Test Example 4: herbicidal effect by soil treatment (Table 19, symbol K); assay type: in vivo, Italian ryegrass (Lolium multiflorum); details: amount of applied herbicide 320 g/ha
Outline: as §2

[10] = tested on: windgrass; assay: Test Example 4: herbicidal effect by soil treatment (Table 19, symbol L); assay type: in vivo, windgrass (Apera spica-venti); details: amount of applied herbicide 320 g/ha
Outline: as §2

[11] = tested on: velvetleaf; assay: Test Example 4: herbicidal effect by soil treatment (Table 19, symbol M); assay type: in vivo, velvetleaf (Abutilon theophrasti); details: amount of applied herbicide 320 g/ha
Outline: as §2

[12] = tested on: redroot pigweed; assay: Test Example 4: herbicidal effect by soil treatment (Table 19, symbol N); assay type: in vivo, redroot pigweed (Amaranthus retroflexus); details: amount of applied herbicide 320 g/ha
Outline: as §2

[13] = tested on: lambsquarters; assay: Test Example 4: herbicidal effect by soil treatment (Table 19, symbol O); assay type: in vivo, lambsquarters (Chenopodium album); details: amount of applied herbicide 320 g/ha
Outline: as §2

[14] = tested on: chickweed; assay: Test Example 4: herbicidal effect by soil treatment (Table 19, symbol P); assay type: in vivo, common chickweed (Stellaria media); details: amount of applied herbicide 320 g/ha
Outline: as §2

[15] = tested on: persian speedwell; assay: Test Example 4: herbicidal effect by soil treatment (Table 19, symbol R); assay type: in vivo, Persian speedwell (Veronica persica); details: amount of applied herbicide 320 g/ha
Outline: as §2

[16] = tested on: southern crabgrass; assay: Test Example 5: herbicidal effect by foliage application, plastic box (Table 20, symbol F); assay type: in vivo, southern crabgrass (Digitaria ciliaris); details: 320 g/ha, foliage application after 14-day growth, evaluated three weeks after application
Outline: (§3)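 Sow seeds spot-wise in sterilized diluvial soil; cover with ~1.5 cm soil. Grow 14 days in greenhouse, 25° C. to 30° C. Spray foliage with emulsion diluted to predetermined amount. Rate effect after 3 weeks.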

[17] = tested on: green foxtail; assay: Test Example 5: herbicidal effect by foliage application, plastic box (Table 20, symbol G); assay type: in vivo, green foxtail (Setaria viridis); details: 320 g/ha, foliage application after 14-day growth, evaluated three weeks after application
Outline: as §3

[18] = tested on: barnyard grass; assay: Test Example 5: herbicidal effect by foliage application, plastic box (Table 20, symbol H); assay type: in vivo, barnyard grass (Echinochloa crus-galli); details: 320 g/ha, foliage application after 14-day growth, evaluated three weeks after application
Outline: as §3

[19] = tested on: wild oat; assay: Test Example 5: herbicidal effect by foliage application, plastic box (Table 20, symbol I); assay type: in vivo, wild oat (Avena fatua); details: 320 g/ha, foliage application after 14-day growth, evaluated three weeks after application
Outline: as §3

[20] = tested on: blackgrass; assay: Test Example 5: herbicidal effect by foliage application, plastic box (Table 20, symbol J); assay type: in vivo, blackgrass (Alopecurus myosuroides); details: 320 g/ha, foliage application after 14-day growth, evaluated three weeks after application
Outline: as §3

[21] = tested on: Italian ryegrass; assay: Test Example 5: herbicidal effect by foliage application, plastic box (Table 20, symbol K); assay type: in vivo, Italian ryegrass (Lolium multiflorum); details: 320 g/ha, foliage application after 14-day growth, evaluated three weeks after application
Outline: as §3

[22] = tested on: windgrass; assay: Test Example 5: herbicidal effect by foliage application, plastic box (Table 20, symbol L); assay type: in vivo, windgrass (Apera spica-venti); details: 320 g/ha, foliage application after 14-day growth, evaluated three weeks after application
Outline: as §3

[23] = tested on: velvetleaf; assay: Test Example 5: herbicidal effect by foliage application, plastic box (Table 20, symbol M); assay type: in vivo, velvetleaf (Abutilon theophrasti); details: 320 g/ha, foliage application after 14-day growth, evaluated three weeks after application
Outline: as §3

[24] = tested on: redroot pigweed; assay: Test Example 5: herbicidal effect by foliage application, plastic box (Table 20, symbol N); assay type: in vivo, redroot pigweed (Amaranthus retroflexus); details: 320 g/ha, foliage application after 14-day growth, evaluated three weeks after application
Outline: as §3

[25] = tested on: lambsquarters; assay: Test Example 5: herbicidal effect by foliage application, plastic box (Table 20, symbol O); assay type: in vivo, lambsquarters (Chenopodium album); details: 320 g/ha, foliage application after 14-day growth, evaluated three weeks after application
Outline: as §3

[26] = tested on: chickweed; assay: Test Example 5: herbicidal effect by foliage application, plastic box (Table 20, symbol P); assay type: in vivo, common chickweed (Stellaria media); details: 320 g/ha, foliage application after 14-day growth, evaluated three weeks after application
Outline: as §3

[27] = tested on: persian speedwell; assay: Test Example 5: herbicidal effect by foliage application, plastic box (Table 20, symbol R); assay type: in vivo, Persian speedwell (Veronica persica); details: 320 g/ha, foliage application after 14-day growth, evaluated three weeks after application
Outline: as §3

SMILES | herbicidal effect on barnyard grass (H) [1] | herbicidal effect on Chinese sprangletop (D) [2] | herbicidal effect on rice flat sedge (E) [3] | Herbicidal effect by soil treatment, F: southern crabgrass [4] | Herbicidal effect by soil treatment, G: green foxtail [5] | Herbicidal effect by soil treatment, H: barnyard grass [6] | Herbicidal effect by soil treatment, I: wild oat [7] | Herbicidal effect by soil treatment, J: blackgrass [8] | Herbicidal effect by soil treatment, K: Italian ryegrass [9] | Herbicidal effect by soil treatment, L: windgrass [10] | Herbicidal effect by soil treatment, M: velvetleaf [11] | Herbicidal effect by soil treatment, N: redroot pigweed [12] | Herbicidal effect by soil treatment, O: lambsquarters [13] | Herbicidal effect by soil treatment, P: chickweed [14] | Herbicidal effect by soil treatment, R: persian speedwell [15] | herbicidal effect on F: southern crabgrass (evaluation grade 0-5) [16] | herbicidal effect on G: green foxtail (evaluation grade 0-5) [17] | herbicidal effect on H: barnyard grass (evaluation grade 0-5) [18] | herbicidal effect on I: wild oat (evaluation grade 0-5) [19] | herbicidal effect on J: blackgrass (evaluation grade 0-5) [20] | further results
Cc1nn(C)c(=O)c(-c2c(-c3ccccc3)sc3c(Cl)cccc23)c1O [4-056] | 4 (Herbicidal rate of 70% or more and less than 90%) | 4 (Herbicidal rate of 70% or more and less than 90%) | 4 (Herbicidal rate of 70% or more and less than 90%) | 0 (Herbicidal rate of 5% or less (almost no effect)) | 0 (Herbicidal rate of 5% or less (almost no effect)) | 0 (Herbicidal rate of 5% or less (almost no effect)) | 0 (Herbicidal rate of 5% or less (almost no effect)) | 0 (Herbicidal rate of 5% or less (almost no effect)) | 0 (Herbicidal rate of 5% or less (almost no effect)) | 3 (Herbicidal rate of 40% or more and less than 70%) | 0 (Herbicidal rate of 5% or less (almost no effect)) | 0 (Herbicidal rate of 5% or less (almost no effect)) | 0 (Herbicidal rate of 5% or less (almost no effect)) | 3 (Herbicidal rate of 40% or more and less than 70%) | 0 (Herbicidal rate of 5% or less (almost no effect)) | 2 (Herbicidal rate of 20% or more and less than 40%) | 1 (Herbicidal rate of 5% or more and less than 20%) | 3 (Herbicidal rate of 40% or more and less than 70%) | 4 (Herbicidal rate of 70% or more and less than 90%) | 4 (Herbicidal rate of 70% or more and less than 90%) | herbicidal effect on K: Italian ryegrass (evaluation grade 0-5) [21]: 4 (Herbicidal rate of 70% or more and less than 90%); herbicidal effect on L: windgrass (evaluation grade 0-5) [22]: 5 (Herbicidal rate of 90% or more (almost completely withered)); herbicidal effect on M: velvetleaf (evaluation grade 0-5) [23]: 5 (Herbicidal rate of 90% or more (almost completely withered)); herbicidal effect on N: redroot pigweed (evaluation grade 0-5) [24]: 5 (Herbicidal rate of 90% or more (almost completely withered)); herbicidal effect on O: lambsquarters (evaluation grade 0-5) [25]: 3 (Herbicidal rate of 40% or more and less than 70%); herbicidal effect on P: chickweed (evaluation grade 0-5) [26]: 5 (Herbicidal rate of 90% or more (almost completely withered)); herbicidal effect on R: persian speedwell (evaluation grade 0-5) [27]: 5 (Herbicidal rate of 90% or more (almost completely withered))
CCCCOc1cccc(-c2sc3c(Cl)cccc3c2-c2c(O)c(C)nn(C)c2=O)c1 [4-068] | 4 (Herbicidal rate of 70% or more and less than 90%) | 3 (Herbicidal rate of 40% or more and less than 70%) | 3 (Herbicidal rate of 40% or more and less than 70%) | 0 (Herbicidal rate of 5% or less (almost no effect)) | 0 (Herbicidal rate of 5% or less (almost no effect)) | 0 (Herbicidal rate of 5% or less (almost no effect)) | 0 (Herbicidal rate of 5% or less (almost no effect)) | 0 (Herbicidal rate of 5% or less (almost no effect)) | 0 (Herbicidal rate of 5% or less (almost no effect)) | 0 (Herbicidal rate of 5% or less (almost no effect)) | 0 (Herbicidal rate of 5% or less (almost no effect)) | 3 (Herbicidal rate of 40% or more and less than 70%) | 0 (Herbicidal rate of 5% or less (almost no effect)) | 0 (Herbicidal rate of 5% or less (almost no effect)) | 0 (Herbicidal rate of 5% or less (almost no effect)) | 0 (Herbicidal rate of 5% or less (almost no effect)) | 0 (Herbicidal rate of 5% or less (almost no effect)) | 0 (Herbicidal rate of 5% or less (almost no effect)) | 0 (Herbicidal rate of 5% or less (almost no effect)) | 0 (Herbicidal rate of 5% or less (almost no effect)) | herbicidal effect on K: Italian ryegrass (evaluation grade 0-5) [21]: 0 (Herbicidal rate of 5% or less (almost no effect)); herbicidal effect on L: windgrass (evaluation grade 0-5) [22]: 0 (Herbicidal rate of 5% or less (almost no effect)); herbicidal effect on M: velvetleaf (evaluation grade 0-5) [23]: 0 (Herbicidal rate of 5% or less (almost no effect)); herbicidal effect on N: redroot pigweed (evaluation grade 0-5) [24]: 2 (Herbicidal rate of 20% or more and less than 40%); herbicidal effect on O: lambsquarters (evaluation grade 0-5) [25]: 0 (Herbicidal rate of 5% or less (almost no effect)); herbicidal effect on P: chickweed (evaluation grade 0-5) [26]: 5 (Herbicidal rate of 90% or more (almost completely withered)); herbicidal effect on R: persian speedwell (evaluation grade 0-5) [27]: 5 (Herbicidal rate of 90% or more (almost completely withered))
